Reference: ChEMBL document CHEMBL1177848, “Synthesis of novel 6,6a,7,8-tetrahydro-5H-naphtho[1,2-e]pyrimido[4,5-b][1,4]diazepines under microwave irradiation as potential anti-tumor agents” (2010)
Activity calls are given as the source filed them. The rule behind the calls is not given here.

Assays:
[1] = test system: SR; assay: Growth inhibition of human SR cells after 48 hrs by sulforhodamine B assay; format: functional
[2] = test system: NCI-H226; assay: Growth inhibition of human NCI-H226 cells after 48 hrs by sulforhodamine B assay; format: functional; details: NCI-H226, 48 h
[3] = test system: NCI-H522; assay: Growth inhibition of human NCI-H522 cells after 48 hrs by sulforhodamine B assay; format: functional; details: NCI-H522, 48 h
[4] = test system: HCT-116; assay: Growth inhibition of human HCT116 cells after 48 hrs by sulforhodamine B assay; format: functional; details: HCT-116, 48 h
[5] = test system: HCT-15; assay: Growth inhibition of human HCT15 cells after 48 hrs by sulforhodamine B assay; format: functional; details: HCT-15, 48 h
[6] = test system: HT-29; assay: Growth inhibition of human HT-29 cells after 48 hrs by sulforhodamine B assay; format: functional; details: HT-29, 48 h
[7] = test system: SW-620; assay: Growth inhibition of human SW620 cells after 48 hrs by sulforhodamine B assay; format: functional; details: SW-620, 48 h
[8] = test system: SF-295; assay: Growth inhibition of human SF295 cells after 48 hrs by sulforhodamine B assay; format: functional; details: SF-295, 48 h
[9] = test system: U-251; assay: Growth inhibition of human U251 cells after 48 hrs by sulforhodamine B assay; format: functional; details: U-251, 48 h
[10] = test system: LOX IMVI; assay: Growth inhibition of human LOXIMVI cells after 48 hrs by sulforhodamine B assay; format: functional
[11] = test system: MDA-MB-435; assay: Growth inhibition of human MDA-MB-435 cells after 48 hrs by sulforhodamine B assay; format: functional; details: MDA-MB-435, 48 h
[12] = test system: IGROV-1; assay: Growth inhibition of human IGROV1 cells after 48 hrs by sulforhodamine B assay; format: functional; details: IGROV-1, 48 h
[13] = test system: OVCAR-3; assay: Growth inhibition of human OVCAR-3 cells after 48 hrs by sulforhodamine B assay; format: functional; details: OVCAR-3, 48 h
[14] = test system: OVCAR-4; assay: Growth inhibition of human OVCAR4 cells after 48 hrs by sulforhodamine B assay; format: functional; details: OVCAR-4, 48 h
[15] = test system: RXF 393; assay: Growth inhibition of human RXF393 cells after 48 hrs by sulforhodamine B assay; format: functional; details: RXF 393, 48 h
[16] = test system: SN12C; assay: Growth inhibition of human SN12C cells after 48 hrs by sulforhodamine B assay; format: functional
[17] = test system: MCF7; assay: Growth inhibition of human MCF7 cells after 48 hrs by sulforhodamine B assay; format: functional; details: MCF7, 48 h
[18] = test system: BT-549; assay: Growth inhibition of human BT549 cells after 48 hrs by sulforhodamine B assay; format: functional; details: BT-549, 48 h
[19] = test system: T47D; assay: Growth inhibition of human T47D cells after 48 hrs by sulforhodamine B assay; format: functional
[20] = test system: SR; assay: Growth inhibition of human SR cells at 1 uM after 48 hrs by sulforhodamine B assay; format: functional, cell-based
[21] = test system: CCRF-CEM; assay: Growth inhibition of human CCRF-CEM cells at 1 uM after 48 hrs by sulforhodamine B assay; format: functional, cell-based
[22] = test system: MOLT-4; assay: Growth inhibition of human MOLT4 cells at 1 uM after 48 hrs by sulforhodamine B assay; format: functional, cell-based
[23] = test system: HOP-92; assay: Growth inhibition of human HOP92 cells at 1 uM after 48 hrs by sulforhodamine B assay; format: functional, cell-based
[24] = test system: NCI-H226; assay: Growth inhibition of human NCI-H226 cells at 1 uM after 48 hrs by sulforhodamine B assay; format: functional, cell-based
[25] = test system: NCI-H460; assay: Growth inhibition of human NCI-H460 cells at 1 uM after 48 hrs by sulforhodamine B assay; format: functional, cell-based
[26] = test system: NCI-H522; assay: Growth inhibition of human NCI-H522 cells at 1 uM after 48 hrs by sulforhodamine B assay; format: functional, cell-based
[27] = test system: HOP-62; assay: Growth inhibition of human HOP62 cells at 1 uM after 48 hrs by sulforhodamine B assay; format: functional, cell-based
[28] = test system: NCI-H322M; assay: Growth inhibition of human […] cells at 1 uM after 48 hrs by sulforhodamine B assay; format: functional, cell-based
[29] = test system: COLO 205; assay: Growth inhibition of human COLO205 cells at 1 uM after 48 hrs by sulforhodamine B assay; format: functional, cell-based
[30] = test system: HCT-116; assay: Growth inhibition of human HCT116 cells at 1 uM after 48 hrs by sulforhodamine B assay; format: functional, cell-based
[31] = test system: HCT-15; assay: Growth inhibition of human HCT15 cells at 1 uM after 48 hrs by sulforhodamine B assay; format: functional, cell-based
[32] = test system: KM12; assay: Growth inhibition of human KM12 cells at 1 uM after 48 hrs by sulforhodamine B assay; format: functional, cell-based
[33] = test system: SF-539; assay: Growth inhibition of human SF539 cells at 1 uM after 48 hrs by sulforhodamine B assay; format: functional, cell-based
[34] = test system: SF-268; assay: Growth inhibition of human SF268 cells at 1 uM after 48 hrs by sulforhodamine B assay; format: functional, cell-based
[35] = test system: SF530; assay: Growth inhibition of human SF530 cells at 1 uM after 48 hrs by sulforhodamine B assay; format: functional, cell-based
[36] = test system: Malme-3M; assay: Growth inhibition of human MALME-3M cells at 1 uM after 48 hrs by sulforhodamine B assay; format: functional, cell-based
[37] = test system: MDA-MB-435; assay: Growth inhibition of human MDA-MB-435 cells at 1 uM after 48 hrs by sulforhodamine B assay; format: functional, cell-based
[38] = test system: IGROV-1; assay: Growth inhibition of human IGROV1 cells at 1 uM after 48 hrs by sulforhodamine B assay; format: functional, cell-based
[39] = test system: OVCAR-4; assay: Growth inhibition of human OVCAR4 cells at 1 uM after 48 hrs by sulforhodamine B assay; format: functional, cell-based
[40] = test system: CAKI-1; assay: Growth inhibition of human Caki1 cells at 1 uM after 48 hrs by sulforhodamine B assay; format: functional, cell-based
[41] = test system: RXF 393; assay: Growth inhibition of human RXF393 cells at 1 uM after 48 hrs by sulforhodamine B assay; format: functional, cell-based
[42] = test system: SN12C; assay: Growth inhibition of human SN12C cells at 1 uM after 48 hrs by sulforhodamine B assay; format: functional, cell-based
[43] = test system: TK-10; assay: Growth inhibition of human TK10 cells at 1 uM after 48 hrs by sulforhodamine B assay; format: functional, cell-based
[44] = test system: UO-31; assay: Growth inhibition of human UO31 cells at 1 uM after 48 hrs by sulforhodamine B assay; format: functional, cell-based
[45] = test system: DU-145; assay: Growth inhibition of human DU145 cells at 1 uM after 48 hrs by sulforhodamine B assay; format: functional, cell-based
[46] = test system: T47D; assay: Growth inhibition of human T47D cells at 1 uM after 48 hrs by sulforhodamine B assay; format: functional, cell-based
[47] = test system: Hs-578T; assay: Growth inhibition of human Hs 578T cells at 1 uM after 48 hrs by sulforhodamine B assay; format: functional, cell-based
[48] = read-out: LC50 (the source's name)

Molecule Nc1nc(N)c2c(n1)NC(c1ccc(Cl)cc1)C1CCc3ccccc3C1=N2 (stereo unspecified) has a GI50 [1] of 1.73 µM, an LC50 [1] of 36.3 µM and a GI50 [2] of 8.58 µM. The LC50 [2] was 80.6 µM, the GI50 [3] was 5.21 µM and the LC50 [3] was 54.4 µM. For the same molecule, the GI50 [4] was 3.72 µM, the LC50 [4] was 38.6 µM and the GI50 [5] was 4.16 µM. For the same molecule, the LC50 [5] was 53.9 µM, the GI50 [6] was 4.31 µM and the CC50 [6, 48] was 52.6 µM. For the same molecule, the GI50 [7] was 8.23 µM, the LC50 [7] was 54.9 µM and the GI50 [8] was 3.37 µM. It also gave an LC50 (50% lethal concentration) [8] of 40.7 µM, a GI50 [9] of 3.81 µM and an LC50 [9] of 43.9 µM. For the same molecule, the GI50 [10] was 3.53 µM, the LC50 [10] was 44.5 µM and the GI50 [11] was 4.72 µM. For the same molecule, the LC50 (concentration killing 50% of cells) [11] was 54.1 µM, the GI50 [12] was 6.16 µM and the LC50 (concentration killing 50% of cells) [12] was 49.9 µM. For the same molecule, the GI50 [13] was 6.46 µM, the LC50 (lethal concentration, 50% cell kill) [13] was 43.6 µM and the GI50 [14] was 6.45 µM. For the same molecule, the LC50 (50% lethal concentration) [14] was 50.9 µM, the GI50 [15] was 4.68 µM and the LC50 (50% lethal concentration) [15] was 54.4 µM. For the same molecule, the GI50 [16] was 7.68 µM, the CC50 [16, 48] was 50.9 µM and the GI50 [17] was 2.41 µM. For the same molecule, the LC50 [17] was 33.7 µM, the GI50 [18] was 9.01 µM and the CC50 [18, 48] was 52.6 µM. The GI50 [19] was 4.09 µM, the CC50 [19, 48] was 59.8 µM and the “growth inhibition (GI)” value [20] was “inactive”. For the same molecule, the “growth inhibition (GI)” value [21] was “inactive”, the “growth inhibition (GI)” value [22] was “inactive” and the “growth inhibition (GI)” value [23] was “inactive”. The “growth inhibition (GI)” value [24] was “inactive”, the “growth inhibition (GI)” value [25] was “inactive” and the “growth inhibition (GI)” value [26] was “inactive”. For the same molecule, the “growth inhibition (GI)” value [27] was “inactive”, the “growth inhibition (GI)” value [28] was “inactive” and the “growth inhibition (GI)” value [29] was “inactive”. The “growth inhibition (GI)” value [30] was “inactive”, the “growth inhibition (GI)” value [31] was “inactive” and the “growth inhibition (GI)” value [32] was “inactive”. The “growth inhibition (GI)” value [33] was “inactive”, the “growth inhibition (GI)” value [34] was “inactive” and the “growth inhibition (GI)” value [35] was “inactive”. The “growth inhibition (GI)” value [36] was “inactive”, the “growth inhibition (GI)” value [37] was “inactive” and the “growth inhibition (GI)” value [38] was “inactive”. For the same molecule, the “growth inhibition (GI)” value [39] was “inactive”, the “growth inhibition (GI)” value [40] was “inactive” and the “growth inhibition (GI)” value [41] was “inactive”. The “growth inhibition (GI)” value [42] was “inactive”, the “growth inhibition (GI)” value [43] was “inactive” and the “growth inhibition (GI)” value [44] was “inactive”. For the same molecule, the “growth inhibition (GI)” value [45] was “inactive”, the “growth inhibition (GI)” value [46] was “inactive” and the “growth inhibition (GI)” value [47] was “inactive”.
